Results from patent publication US20240208956A1, “1,3,4-OXADIAZOLE THIOCARBONYL COMPOUNDS AS HISTONE DEACETYLASE 6 INHIBITOR, AND PHARMACEUTICAL COMPOSITION COMPRISING THE SAME” (CHONG KUN DANG PHARMACEUTICAL CORP., priority 2021, published 2024).

How the values were obtained:
HDAC1 = HDAC1 (Homo sapiens (Human), UniProt Q13547); assay: HDAC enzyme activity inhibition (in vitro), HDAC1 Fluorimetric Drug Discovery Assay Kit; assay type: biochemical; conditions: samples at 100, 1000 and 10000 nM; 37° C. 60 minutes; fluorescence Ex 390 nm, Em 460 nm
HDAC1, sequence (Q13547 whole entry): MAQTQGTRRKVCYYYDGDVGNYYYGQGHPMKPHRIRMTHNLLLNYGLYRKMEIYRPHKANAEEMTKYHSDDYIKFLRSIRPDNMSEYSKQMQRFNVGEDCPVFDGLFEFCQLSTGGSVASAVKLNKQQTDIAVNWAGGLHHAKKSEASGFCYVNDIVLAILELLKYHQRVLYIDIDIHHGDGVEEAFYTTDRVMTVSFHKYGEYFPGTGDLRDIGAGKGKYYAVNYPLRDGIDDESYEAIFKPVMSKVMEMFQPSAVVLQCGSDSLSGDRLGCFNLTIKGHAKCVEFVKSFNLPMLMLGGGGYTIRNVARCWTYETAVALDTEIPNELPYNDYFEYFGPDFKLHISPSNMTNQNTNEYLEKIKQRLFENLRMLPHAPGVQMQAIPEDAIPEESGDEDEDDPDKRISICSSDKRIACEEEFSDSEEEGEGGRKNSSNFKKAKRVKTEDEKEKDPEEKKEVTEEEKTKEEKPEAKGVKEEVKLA
Experimental: Experimental Example 1. Confirmation of HDAC Enzyme Activity Inhibition (In Vitro)
(§1) An HDAC enzyme inhibitory capacity of test material was measured by using HDAC1 Fluorimetric Drug Discovery Assay Kit (Enzolifesciences: BML-AK511) and HDAC6 human recombinant (Calbiochem: 382180). For a HDAC1 assay, samples were treated at a concentration of 100 nM, 1000 nM and 10000 nM. For an HDAC6 assay, samples were treated at a concentration of 0.1 nM, 1 nM, 10 nM, 100 nM and 1000 nM. After the sample treatment, a reaction was continued at 37° C. for 60 minutes, treated with a developer, and subjected to reaction at 37° C. for 30 minutes, after which fluorescence intensity (Ex 390 nm, Em 460 nm) was measured by using FlexStation3 (Molecular device). For final result values, each […] value was calculated with GraphPad Prism 4.0 program.

HDAC6 human recombinant = HDAC6 human recombinant (Homo sapiens (Human), UniProt Q9UBN7); assay: HDAC enzyme activity inhibition (in vitro), HDAC6 fluorimetric assay; assay type: biochemical; conditions: samples at 0.1-1000 nM; 37° C. 60 minutes; fluorescence Ex 390 nm, Em 460 nm
HDAC6 human recombinant, sequence (Q9UBN7 whole entry): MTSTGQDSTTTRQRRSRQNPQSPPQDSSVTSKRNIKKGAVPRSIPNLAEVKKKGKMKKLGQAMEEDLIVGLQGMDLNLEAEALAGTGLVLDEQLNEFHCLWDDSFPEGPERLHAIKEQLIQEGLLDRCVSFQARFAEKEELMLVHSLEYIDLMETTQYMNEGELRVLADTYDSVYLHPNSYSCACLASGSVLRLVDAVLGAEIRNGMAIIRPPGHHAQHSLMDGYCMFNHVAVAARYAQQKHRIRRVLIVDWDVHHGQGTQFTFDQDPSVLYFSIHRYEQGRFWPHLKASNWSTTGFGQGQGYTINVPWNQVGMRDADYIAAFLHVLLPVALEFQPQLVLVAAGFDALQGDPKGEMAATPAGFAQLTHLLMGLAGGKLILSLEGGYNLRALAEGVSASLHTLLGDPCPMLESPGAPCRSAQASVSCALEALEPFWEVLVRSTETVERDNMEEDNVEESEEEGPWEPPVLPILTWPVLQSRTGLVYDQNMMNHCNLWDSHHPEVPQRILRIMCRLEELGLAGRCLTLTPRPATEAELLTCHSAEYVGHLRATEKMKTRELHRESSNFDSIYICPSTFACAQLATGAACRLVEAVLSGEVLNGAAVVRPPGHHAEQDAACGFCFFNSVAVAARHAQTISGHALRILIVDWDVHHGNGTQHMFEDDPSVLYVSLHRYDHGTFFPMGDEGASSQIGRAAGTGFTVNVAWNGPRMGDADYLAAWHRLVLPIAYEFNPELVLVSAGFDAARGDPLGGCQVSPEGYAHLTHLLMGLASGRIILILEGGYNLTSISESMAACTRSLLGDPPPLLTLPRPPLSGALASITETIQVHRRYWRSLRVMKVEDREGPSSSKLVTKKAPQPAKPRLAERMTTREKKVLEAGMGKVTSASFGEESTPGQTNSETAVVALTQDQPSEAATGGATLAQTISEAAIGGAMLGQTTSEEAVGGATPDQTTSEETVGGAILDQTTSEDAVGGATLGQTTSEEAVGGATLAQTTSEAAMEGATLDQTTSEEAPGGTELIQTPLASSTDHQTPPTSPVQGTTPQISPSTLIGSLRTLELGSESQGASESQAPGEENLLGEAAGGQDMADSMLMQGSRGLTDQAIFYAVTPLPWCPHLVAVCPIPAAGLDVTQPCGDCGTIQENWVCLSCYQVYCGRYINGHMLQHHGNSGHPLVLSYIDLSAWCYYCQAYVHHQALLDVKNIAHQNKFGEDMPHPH
Experimental: Confirmation of HDAC Enzyme Activity Inhibition (In Vitro)
as §1

IC50 (HDAC1)	IC50 (HDAC6 human recombinant)	Structure (SMILES)
> 10000 nM	196 nM	Fc1ccc(N(Cc2ccc(-c3nnc(C(F)F)o3)cc2F)C(=S)N2CCC3(CC2)CN(C2COC2)C3)cc1F [Compound 45, N-(4-(5-(difluoromethyl)-1,3,4-oxadiazol-2-yl)-2-fluorobenzyl)-N-(3,4-difluorophenyl)-2-(oxetan-3-yl)-2,7-diazaspiro[3.5]nonan-7-carbothioamide]
> 10000 nM	63 nM	CC(C)N1CC2(CN(C(=S)N(Cc3ccc(-c4nnc(C(F)F)o4)cc3)c3cccc(F)c3)C2)C1 [Compound 16, N-(4-(5-(difluoromethyl)-1,3,4-oxadiazol-2-yl)benzyl)-N-(3-fluorophenyl)-6-isopropyl-2,6-diazaspiro[3.3]heptan-2-carbothioamide]
> 10000 nM	45 nM	Fc1ccc(N(Cc2ccc(-c3nnc(C(F)F)o3)cc2)C(=S)N2CC3(C2)CN(C2COC2)C3)cc1F [Compound 32, N-(4-(5-(difluoromethyl)-1,3,4-oxadiazol-2-yl)benzyl)-N-(3,4-difluorophenyl)-6-(oxetan-3-yl)-2,6-diazaspiro[3.3]heptan-2-carbothioamide]
> 10000 nM	28 nM	CN1CCC2(CC1)CN(C(=S)N(Cc1ccc(-c3nnc(C(F)F)o3)cc1F)c1ccc(F)c(F)c1)C2 [Compound 46, N-(4-(5-(difluoromethyl)-1,3,4-oxadiazol-2-yl)-2-fluorobenzyl)-N-(3,4-difluorophenyl)-7-methyl-2,7-diazaspiro[3.5]nonan-2-carbothioamide]
> 10000 nM	80 nM	CN1CC2(CCN(C(=S)N(Cc3ccc(-c4nnc(C(F)F)o4)cc3F)c3ccc(F)c(F)c3)CC2)C1 [Compound 44, N-(4-(5-(difluoromethyl)-1,3,4-oxadiazol-2-yl)-2-fluorobenzyl)-N-(3,4-difluorophenyl)-2-methyl-2,7-diazaspiro[3.5]nonan-7-carbothioamide]
> 10000 nM		Fc1cc(-c2nnc(C(F)F)o2)ccc1CN(C(=S)N1CCOCC1)c1ccccc1 [Compound 1, N-(4-(5-(difluoromethyl)-1,3,4-oxadiazol-2-yl)-2-fluorobenzyl)-N-phenylmorpholin-4-carbothioamide]
> 10000 nM	76 nM	CN1CC2(C1)CN(C(=S)N(Cc1ccc(-c3nnc(C(F)F)o3)cc1F)c1ccc(F)c(F)c1)C2 [Compound 13, N-(4-(5-(difluoromethyl)-1,3,4-oxadiazol-2-yl)-2-fluorobenzyl)-N-(3,4-difluorophenyl)-6-methyl-2,6-diazaspiro[3.3]heptan-2-carbothioamide]
> 10000 nM	47 nM	Fc1ccc(N(Cc2ccc(-c3nnc(C(F)F)o3)cc2F)C(=S)N2CC3(C2)CN(C2COC2)C3)cc1F [Compound 34, N-(4-(5-(difluoromethyl)-1,3,4-oxadiazol-2-yl)-2-fluorobenzyl)-N-(3,4-difluorophenyl)-6-(oxetan-3-yl)-2,6-diazaspiro[3.3]heptan-2-carbothioamide]
> 10000 nM	51 nM	Fc1cccc(N(Cc2ccc(-c3nnc(C(F)F)o3)cc2F)C(=S)N2CC3(C2)CN(C2COC2)C3)c1 [Compound 38, N-(4-(5-(difluoromethyl)-1,3,4-oxadiazol-2-yl)-2-fluorobenzyl)-N-(3-fluorophenyl)-6-(oxetan-3-yl)-2,6-diazaspiro[3.3]heptan-2-carbothioamide]
> 10000 nM		Fc1ccc(N(Cc2ccc(-c3nnc(C(F)F)o3)cc2F)C(=S)N2CC3(COC3)C2)cc1F [Compound 35, N-(4-(5-(difluoromethyl)-1,3,4-oxadiazol-2-yl)-2-fluorobenzyl)-N-(3,4-difluorophenyl)-2-oxa-6-azaspiro[3.3]heptan-6-carbothioamide]

Continued, compound first:

Structure (SMILES)	IC50 (HDAC1)	IC50 (HDAC6 human recombinant)
CN1CCN(C(=S)N(Cc2ccc(-c3nnc(C(F)F)o3)cc2F)c2ccccc2)CC1 [Compound 7, N-(4-(5-(difluoromethyl)-1,3,4-oxadiazol-2-yl)-2-fluorobenzyl)-4-methyl-N-phenylpiperazin-1-carbothioamide]	> 10000 nM	
Fc1ccc(N(Cc2ccc(-c3nnc(C(F)F)o3)cc2F)C(=S)N2C[C@@H]3C[C@H]2CN3C2COC2)cc1 [Compound 41, (1S,4S)—N-(4-(5-(difluoromethyl)-1,3,4-oxadiazol-2-yl)-2-fluorobenzyl)-N-(4-fluorophenyl)-5-(oxetan-3-yl)-2,5-diazabicyclo[2.2.1]heptan-2-carbothioamide]	> 10000 nM	73 nM
CN1CC2(C1)CN(C(=S)N(Cc1ccc(-c3nnc(C(F)F)o3)cc1)c1ccc(F)c(Cl)c1)C2 [Compound 26, N-(3-chloro-4-fluorophenyl)-N-(4-(5-(difluoromethyl)-1,3,4-oxadiazol-2-yl)benzyl)-6-methyl-2,6-diazaspiro[3.3]heptan-2-carbothioamide]	> 10000 nM	89 nM
FC(F)c1nnc(-c2ccc(CN(C(=S)N3CCOCC3)c3ccccc3)nc2)o1 [Compound 2, N-((5-(5-(difluoromethyl)-1,3,4-oxadiazol-2-yl)pyridin-2-yl)methyl)-N-phenylmorpholin-4-carbothioamide]	> 10000 nM	66 nM
CC(C)N1CC2(CN(C(=S)N(Cc3ccc(-c4nnc(C(F)F)o4)cc3)c3ccc(F)c(Cl)c3)C2)C1 [Compound 29, N-(3-chloro-4-fluorophenyl)-N-(4-(5-(difluoromethyl)-1,3,4-oxadiazol-2-yl)benzyl)-6-isopropyl-2,6-diazaspiro[3.3]heptan-2-carbothioamide]	> 10000 nM	70 nM
CN1CC2(C1)CN(C(=S)N(Cc1ccc(-c3nnc(C(F)F)o3)cc1F)c1ccc(F)c(Cl)c1)C2 [Compound 25, N-(3-chloro-4-fluorophenyl)-N-(4-(5-(difluoromethyl)-1,3,4-oxadiazol-2-yl)-2-fluorobenzyl)-6-methyl-2,6-diazaspiro[3.3]heptan-2-carbothioamide]	> 10000 nM	46 nM
O=S1(=O)CCN(C(=S)N(Cc2ccc(-c3nnc(C(F)F)o3)cn2)c2ccccc2)CC1 [Compound 6, N-((5-(5-(difluoromethyl)-1,3,4-oxadiazol-2-yl)pyridin-2-yl)methyl)-N-phenylthiomorpholin-4-carbothioamide 1,1-dioxide]	> 10000 nM	31 nM
FC(F)c1nnc(-c2ccc(CN(C(=S)N3CCOCC3)c3ccccc3)cc2)o1 [Compound 3, N-(4-(5-(difluoromethyl)-1,3,4-oxadiazol-2-yl)benzyl)-N-phenylmorpholin-4-carbothioamide]	> 10000 nM	37 nM
CC(C)N1C[C@@H]2C[C@H]1CN2C(=S)N(Cc1ccc(-c2nnc(C(F)F)o2)cc1F)c1ccc(F)cc1 [Compound 40, (1S,4S)—N-(4-(5-(difluoromethyl)-1,3,4-oxadiazol-2-yl)-2-fluorobenzyl)-N-(4-fluorophenyl)-5-isopropyl-2,5-diazabicyclo[2.2.1]heptan-2-carbothioamide]	> 10000 nM	55 nM
Fc1cc(-c2nnc(C(F)F)o2)ccc1CN(C(=S)N1CC2(C1)CN(C1COC1)C2)c1ccc(Cl)c(Cl)c1 [Compound 24, N-(3,4-dichlorophenyl)-N-(4-(5-(difluoromethyl)-1,3,4-oxadiazol-2-yl)-2-fluorobenzyl)-6-(oxetan-3-yl)-2,6-diazaspiro[3.3]heptan-2-carbothioamide]	> 10000 nM	83 nM
CN1CC2(C1)CN(C(=S)N(Cc1ccc(-c3nnc(C(F)F)o3)cc1F)c1ccc(Cl)c(Cl)c1)C2 [Compound 23, N-(3,4-dichlorophenyl)-N-(4-(5-(difluoromethyl)-1,3,4-oxadiazol-2-yl)-2-fluorobenzyl)-6-methyl-2,6-diazaspiro[3.3]heptan-2-carbothioamide]	> 10000 nM	62 nM
CN1C[C@@H]2C[C@H]1CN2C(=S)N(Cc1ccc(-c2nnc(C(F)F)o2)cc1F)c1ccc(F)c(F)c1 [Compound 42, (1S,4S)—N-(4-(5-(difluoromethyl)-1,3,4-oxadiazol-2-yl)-2-fluorobenzyl)-N-(3,4-difluorophenyl)-5-methyl-2,5-diazabicyclo[2.2.1]heptan-2-carbothioamide]	> 10000 nM	
CC(=O)N1CC2(C1)CN(C(=S)N(Cc1ccc(-c3nnc(C(F)F)o3)cc1F)c1ccc(F)c(F)c1)C2 [Compound 33, 6-acetyl-N-(4-(5-(difluoromethyl)-1,3,4-oxadiazol-2-yl)-2-fluorobenzyl)-N-(3,4-difluorophenyl)-2,6-diazaspiro[3.3]heptan-2-carbothioamide]	> 10000 nM	35 nM
CC(C)N1CC2(CN(C(=S)N(Cc3ccc(-c4nnc(C(F)F)o4)cc3F)c3ccc(F)cc3)C2)C1 [Compound 18, N-(4-(5-(difluoromethyl)-1,3,4-oxadiazol-2-yl)-2-fluorobenzyl)-N-(4-fluorophenyl)-6-isopropyl-2,6-diazaspiro[3.3]heptan-2-carbothioamide]	> 10000 nM	61 nM
Fc1cc(-c2nnc(C(F)F)o2)ccc1CN(C(=S)N1CC2(C1)CN(C1COC1)C2)c1ccccc1 [Compound 11, N-(4-(5-(difluoromethyl)-1,3,4-oxadiazol-2-yl)-2-fluorobenzyl)-6-(oxetan-3-yl)-N-phenyl-2,6-diazaspiro[3.3]heptan-2-carbothioamide]	> 10000 nM	50 nM
